The results in this text go back to article PMC12005787, “Synthetic Lethality of SHP2 and XIAP Suppresses Proliferation and Metastasis in KRAS‐mutant Nonsmall Cell Lung Cancer” (Advanced Science, 2025).

Each structure is given as a SMILES string. Read-outs that look alike come from different tables or passages of the source.

The subject of assay [1] is HCC44 cells. Nature of the assay: Cell viability assay (CCK-8). It counts as cell-based. As to conditions: Homo sapiens. As to the method:
(§1) supplies are listed in Supplementary Table S5. […]
(§2) KRAS-mutant and wild-type cells are listed in Supplementary Table S7.
(§3) For the adherent cell viability assay, cells in the logarithmic growth phase were seeded in 96-well culture plates at a density of 5×103 well-1 and incubated overnight. Diluted compounds or DMSO were added, or specific treatments were incubated at 37 °C and 5% CO2 for 24 h or 48 h. Cell viability was determined using CCK-8 or CellLightTM Cell Viability Assay Kit, according to the manufacturer's protocol. The luminescence signals of the treated samples were normalized to those of the DMSO group. […]

Assay [2] deals with NCI-H1299 cells. The assay is described as follows: Cell viability assay (CCK-8). The note with it: Homo sapiens. It counts as cell-based. The method, then: as §1, §2, §3
Assay [3] concerns NCI-H1975 cells. The assay is described as follows: Cell viability assay (CCK-8). Format: cell-based. The note with it: Homo sapiens, NCI-H1975, 24 h, NCI-H1975, RAS-wild type, EGFR L858R/T790M. As to the method:
as §1, §2, §3

For assay [4], the system named is MDA-MB-231 cells. The assay is described as follows: Cell viability assay (CCK-8). Format: cell-based. The note with it: Homo sapiens. The method, then: as §1, §2, §3
Assay [5] relates to NCI-H1155 cells. The assay is described as follows: Cell viability assay (CCK-8). Format: cell-based. The note with it: Homo sapiens. The method, then:
as §1, §2, §3

In assay [6] the test system is HeLa cells. The assay is described as follows: Cell viability assay (CCK-8). It counts as cell-based. As to conditions: Homo sapiens. As to the method:
as §1, §2, §3

Assay [7] relates to NCI-H2122 cells. Nature of the assay: Cell viability assay (CCK-8). It counts as cell-based. As to conditions: Homo sapiens. The method, then:
as §1, §2, §3

In assay [8] the test system is A549 cells. The assay is described as follows: Cell viability assay (CCK-8). Format: cell-based. As to conditions: Homo sapiens. The method, then:
as §1, §2, §3

For assay [9], the system named is Lewis/Luc1 cells. The assay is described as follows: Cell viability assay (CCK-8). It counts as cell-based. As to the method:
as §1, §2, §3

Assay [10] has as its target T1, ΔSHP2^K325A (Homo sapiens, UniProt Q06124, K325A).
T1 construct: His‐ΔSHP2, encompassing the peptide from amino acids 205–593 retaining PTP activity; His; made in house; host or cells: E. coli BL21
The assay is described as follows: PTP activity assay of K325A mutant. It counts as biochemical. The method, then: Catalytic activity screening methods for PTPs using candidate compounds were performed as previously described.^[ [77] ^] In brief, soluble fusion PTP proteins, His‐ΔSHP2, encompassing the peptide from amino acids 205–593 retaining PTP activity, His‐ΔSHP2^K325A, His‐ΔSHP1, encompassing the peptide from amino acids 202–595 retaining PTP activity, His‐PTP1B, His‐HePTP, His‐VHR, and His‐TCPTP were cloned, expressed, and purified in E. coli. After determining protein concentration using bicinchoninic acid (BCA) assay kit, 1 µg fusion protein, 10 µM library compound were added in 100 µL reaction mixture (55 mM 4‐(2‐hydroxyethyl)‐1‐piperazineethanesulfonic acid [HEPES], 100 mM sodium chloride [NaCl], 0.5 mM ethylenediaminetetraacetic acid [EDTA], 1 mM dithiothreitol [DTT], 0.01% Triton X‐100, 0.002% bovine serum albumin [BSA], and 0.1% dimethyl sulfoxide [DMSO]) and incubated at 37 °C for 30 min in the dark, with Na3VO4 as positive control. The detection substrate DiFMUP (50 µM) was promptly added to each reaction and functioned at 37 °C for 30 min in the dark. The fluorescence intensity was then measured using Multimode Plate Reader (λa = 358 nm, λe = 455 nm, PerkinElmer, USA).
A single‐point mutation assay of the pET32a‐ΔSHP2 plasmid was performed using the QuickMutation Site‐Directed Mutagenesis Kit (Beyotime, Shanghai, China). […]

The subject of assay [11] is cancer cell lines that contain different RAS mutations. Nature of the assay: Average sensitivity of cancer cell line panel by RAS mutation status. It counts as cell-based. The method, then: Inhibitory effects of embelin on KRAS-mutant and wild-type cells are listed in Supplementary Table S7.
as §3

Assay [12] relates to A549 and NCI‐H2122 cells. The assay is described as follows: Cell proliferation in monolayer culture (CCK-8). It counts as cell-based, human. The method, then: as §3
Figure S7. Targeting SHP2 and XIAP produces a synthetic lethal effect. (A) Effects of NSC-87877 on cell viability of A549 and NCI-H2122 cells after 24 and 48 h were determined using the CCK-8. Bars, ± SEM. The curves were plotted using a variable slope (four-parameter) non-linear fit. (B, E, F, and I) Effects of Na3VO4 (B), birinapant (E), BV-6 (F), and LCL161 (I) on cell viability of human NCI-H2122 cells at 48 h were determined using the CCK-8. *p < 0.05, **p < 0.01 and ***p < 0.001 compared to control group (unpaired two-tailed Student’s t-test).(C, G) Effects of SHP099 (C) and GDC-0152 (G) on cell viability after 24 and 48 h were determined using the CCK-8. Bars, ± SEM. The curves were plotted using a variable slope (four-parameter) non-linear fit.(D, H) Effects of SHP099 (D) and GDC-0152 (H) on cell viability were determined after 48 h using intracellular ATP chemiluminescence. **p < 0.01 and ***p < 0.001 compared to control group (unpaired two-tailed Student’s t-test).(J) Effects of SHP099 and GDC-0152 separately and in combination, and the effect of embelin for 24 h on the cell viability were assessed using intracellular ATP […]
tailed Student’s t-test).(K) Effects of SHP099 and GDC-0152 separately and in combination with […] on the cell viability of human KRAS-WT and -mutant cells were assessed using a colony formation assay. (L, M) A549 and NCI-H2122 cells were instantaneously transfected with siPTPN11 and siXIAP separately and together for 24 h under

T1 sequence (Q06124 205-593 K325A): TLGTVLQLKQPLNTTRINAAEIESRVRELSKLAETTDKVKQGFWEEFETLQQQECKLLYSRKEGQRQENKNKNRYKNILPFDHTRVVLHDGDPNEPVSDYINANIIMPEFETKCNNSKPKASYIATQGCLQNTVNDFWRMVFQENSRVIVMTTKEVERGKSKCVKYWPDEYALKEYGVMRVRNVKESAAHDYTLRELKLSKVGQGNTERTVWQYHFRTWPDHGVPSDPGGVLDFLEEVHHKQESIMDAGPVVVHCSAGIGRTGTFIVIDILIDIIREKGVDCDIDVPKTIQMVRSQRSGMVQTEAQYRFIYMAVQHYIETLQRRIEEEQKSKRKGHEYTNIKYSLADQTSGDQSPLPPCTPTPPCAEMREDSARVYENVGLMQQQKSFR

Broadly, the IC50 is the concentration that gives 50% inhibition. For `CCCCCCCCCCCC1=C(O)C(=O)C=C(O)C1=O` [Embelin], the IC50 in [1] (HCC44, 48 h, read-out: IC50 at 48 h) came out at 6.52 ± 0.4 µM; in assay [1] (HCC44, KRAS G12C, 24 h, read-out: IC50 at 24 h) it was 27.3 ± 0.44 µM; in assay [2] (NCI-H1299, 48 h, read-out: IC50 at 48 h) it was 13.1 ± 0.6 µM; in assay [2] (NCI-H1299, NRAS, 24 h, read-out: IC50 at 24 h), 19.6 ± 1 µM; in [3] it was 7.4 ± 0.83 µM; in [4] (MDA-MB-231, 48 h, read-out: IC50 at 48 h), 11.5 ± 0.7 µM. Besides, the IC50 in assay [4] (MDA-MB-231, KRAS G13D, 24 h, read-out: IC50 at 24 h) is 13.6 ± 0.2 µM; in assay [5] (NCI-H1155, 48 h, read-out: IC50 at 48 h) it was 7.07 ± 0.45 µM; in assay [5] (NCI-H1155, KRAS Q61H, 24 h, read-out: IC50 at 24 h), 16.1 ± 0.36 µM; in assay [6] (48 h, read-out: IC50 at 48 h) it was 13.4 ± 0.6 µM; in assay [6] (RAS-wild type, 24 h, read-out: IC50 at 24 h) it was 16.5 ± 0.2 µM; in assay [7] (NCI-H2122, 48 h, read-out: IC50 at 48 h), 4.03 ± 0.1 µM. Besides, the IC50 was 4.9 ± 0.1 µM in assay [7] (NCI-H2122, KRAS G12C, 24 h, read-out: IC50 at 24 h); 6.5 ± 0.9 µM in [8] (A549, 48 h, read-out: IC50 at 48 h); 7.9 µM in assay [8] (A549, KRAS G12S, 24 h, read-out: IC50 at 24 h); 18.2 ± 0.9 µM in [9] (Lewis/Luc1, 48 h, read-out: IC50 at 48 h); 20.6 ± 0.6 µM in assay [9] (Lewis/Luc1, RAS-wild type, 24 h, read-out: IC50 at 24 h); 44 µM in assay [11] (HRAS mutants). For the same molecule, the IC50 in assay [11] (NRAS mutant strain) worked out at 19.6 µM; in assay [11] (RAS wild‐type cell lines), 30.8 µM; in assay [11] (cell lines with KRAS mutations), 16.9 µM. The “inhibitory effect on activity of ΔSHP2^K325A versus wild-type ΔSHP2” value in [10] is recorded as “notably diminished the inhibitory effect”.

Turning to `CC1(N)CCN(c2cnc(-c3cccc(Cl)c3Cl)c(N)n2)CC1` [SHP099], in assay [12], the “effect on cell proliferation in monolayer cell culture mode” value is on record as “almost no effect”.
